Source: US20160039879A1, “NOVEL CYCLOSPORIN DERIVATIVES AND USES THEREOF” (S&T Global Inc., priority 2013, published 2016)

Assays:
[1] = Stability testing: epimerization of cyclosporin derivatives in methanol, monitored by HPLC; format: physicochemical; details: Table 9, MeOH at 50° C.-58° C.
HIV-1IIIB = assay: Anti-HIV cytoprotection assay, acute infection model in CEM-SS cells (MTS endpoint); format: cell-based; details: HIV-1IIIB in CEM-SS cells, 6-day incubation, read-out: Antiviral activity EC50
Procedure: Anti-HIV activity of cyclosporine derivatives were evaluated by cytoprotection assay in an acute infection model using CEM-SS cells and either HIV-1IIIB or HIV-1 RF. Antiviral activity was determined as a reduction in virus-caused cytopathic effects when compounds prevent virus replication. Cytoprotection and compound cytotoxicity were evaluated using the tetrazollium dye MTS (Promega) to calculate cell viability following virus infection after 6-day incubation (Zhou G., et al., 2011, J. Med. Chem. 27, 7220-31; which is incorporated herein by reference).

[2] = tested on: HCV replicon in cell line ET (luc-ubi-neo/ET), Huh7 human hepatoma cell line; assay: HCV subgenomic replicon assay (luciferase end point); format: cell-based; details: Hepatitis C virus, Huh-7, Table 15, HCV replicon, read-out: Antiviral activity EC50

Compound	Epimerization % after 168 hours [1]	further results
C/C=C/C[C@@H](C)[C@@H](O)[C@H]1C(=O)N[C@@H](CC)C(=O)N(C)[C@H](CSCCN(CC)CC)C(=O)N(C)[C@@H](CC(C)(C)O)C(=O)N[C@@H](C(C)C)C(=O)N(C)[C@@H](CC(C)C)C(=O)N[C@@H](C)C(=O)N[C@H](C)C(=O)N(C)[C@@H](CC(C)C)C(=O)N(C)[C@@H](CC(C)C)C(=O)N(C)[C@@H](C(C)C)C(=O)N1C (single isomer, unassigned) [Example 32, isomer B]	0%	–
C/C=C/C[C@@H](C)[C@@H](O)[C@H]1C(=O)N[C@@H](CC)C(=O)N(C)[C@H](CSCCN(C)C)C(=O)N(C)[C@@H](CC(C)(C)O)C(=O)N[C@@H](C(C)C)C(=O)N(C)[C@@H](CC(C)C)C(=O)N[C@@H](C)C(=O)N[C@H](C)C(=O)N(C)[C@@H](CC(C)C)C(=O)N(C)[C@@H](CC(C)C)C(=O)N(C)[C@@H](C(C)C)C(=O)N1C (single isomer, unassigned) [Example 31, isomer B]	0%	–
CC=CCC(C)C(O)C1C(=O)NC(CC)C(=O)N(C)C(CSCCC(CO)CCC)C(=O)N(C)C(CC(C)(C)O)C(=O)NC(C(C)C)C(=O)N(C)C(CC(C)C)C(=O)NC(C)C(=O)NC(C)C(=O)N(C)C(CC(C)C)C(=O)N(C)C(CC(C)C)C(=O)N(C)C(C(C)C)C(=O)N1C [Example 105, [(S)-((3-(R)-(Hydroxymethyl)hexyl)thio)methyl-Sar]-3-[(γ-hydroxy)-N-MeLeu]-4-cyclosporin]	0%	–
C/C=C/C[C@@H](C)[C@@H](O)[C@H]1C(=O)N[C@@H](CC)C(=O)N(C)[C@H](CSCCN(C)C)C(=O)N(C)[C@@H](CC(C)(C)O)C(=O)N[C@@H](C(C)C)C(=O)N(C)[C@@H](CC(C)C)C(=O)N[C@@H](C)C(=O)N[C@H](C)C(=O)N(C)[C@@H](CC(C)C)C(=O)N(C)[C@@H](CC(C)C)C(=O)N(C)[C@@H](C(C)C)C(=O)N1C (single isomer, unassigned; isomer b)	–	EC50 (HIV-1IIIB): 0.118 µM
C/C=C/C[C@@H](C)[C@@H](O)[C@H]1C(=O)N[C@@H](CC)C(=O)N(C)[C@H](CSCCCCC(CO)CO)C(=O)N(C)[C@@H](CC(C)(C)O)C(=O)N[C@@H](C(C)C)C(=O)N(C)[C@@H](CC(C)C)C(=O)N[C@@H](C)C(=O)N[C@H](C)C(=O)N(C)[C@@H](CC(C)C)C(=O)N(C)[C@@H](CC(C)C)C(=O)N(C)[C@@H](C(C)C)C(=O)N1C	–	EC50 [2]: 0.07 µM
